From ChEMBL document CHEMBL5678818, “Discovery of potent SOS1 inhibitors that block RAS activation via disruption of the RAS-SOS1 interaction” (Proc Natl Acad Sci U S A, 2019)

Experiments:
[1] = test system: Tyrosine-protein kinase ABL1 (Homo sapiens), P00519 [H396P]; experiment: Inhibition of phosphorylated ABL1 H396P mutant (unknown origin) assessed as residual activity at 1000 nM by KINOMEscan analysis relative to control
[2] = target: T1, Ankyrin repeat and protein kinase domain-containing protein 1 (Homo sapiens) (UniProt Q8NFD2); experiment: Inhibition of ANKK1 (unknown origin) assessed as residual activity at 1000 nM by KINOMEscan analysis relative to control
T1 sequence (whole entry): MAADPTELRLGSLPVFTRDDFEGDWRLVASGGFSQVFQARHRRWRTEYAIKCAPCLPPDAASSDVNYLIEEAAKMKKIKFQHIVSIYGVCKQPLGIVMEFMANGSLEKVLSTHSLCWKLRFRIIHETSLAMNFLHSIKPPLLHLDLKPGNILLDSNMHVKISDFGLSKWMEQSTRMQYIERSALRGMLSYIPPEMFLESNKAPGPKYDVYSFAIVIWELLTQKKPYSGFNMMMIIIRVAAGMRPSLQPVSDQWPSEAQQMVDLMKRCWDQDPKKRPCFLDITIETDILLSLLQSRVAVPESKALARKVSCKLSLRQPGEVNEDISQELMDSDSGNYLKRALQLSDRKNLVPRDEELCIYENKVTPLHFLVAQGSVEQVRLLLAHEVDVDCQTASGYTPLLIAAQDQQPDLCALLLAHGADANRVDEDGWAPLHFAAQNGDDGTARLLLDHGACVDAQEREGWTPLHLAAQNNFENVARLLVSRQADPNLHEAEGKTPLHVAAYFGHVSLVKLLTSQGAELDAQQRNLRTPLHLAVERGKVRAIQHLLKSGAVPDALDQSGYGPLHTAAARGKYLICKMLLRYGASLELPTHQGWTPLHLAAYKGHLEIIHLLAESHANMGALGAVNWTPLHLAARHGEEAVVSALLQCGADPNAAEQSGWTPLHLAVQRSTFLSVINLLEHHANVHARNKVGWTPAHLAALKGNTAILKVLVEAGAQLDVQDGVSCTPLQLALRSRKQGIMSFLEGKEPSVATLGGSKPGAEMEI

[3] = target: Mitogen-activated protein kinase 1 (Homo sapiens) (UniProt P28482); experiment: Inhibition of ERK2 (unknown origin) assessed as residual activity at 1000 nM by KINOMEscan analysis relative to control
[4] = target: Fibroblast growth factor receptor 4 (Homo sapiens) (UniProt P22455); experiment: Inhibition of FGFR4 (unknown origin) assessed as residual activity at 1000 nM by KINOMEscan analysis relative to control
[5] = target: Tyrosine-protein kinase JAK1 (Homo sapiens) (UniProt P23458); experiment: Inhibition of JAK1 JH2 pseudokinase domain (unknown origin) assessed as residual activity at 1000 nM by KINOMEscan analysis relative to control
[6] = target: Serine/threonine-protein kinase 24 (Homo sapiens) (UniProt Q9Y6E0); experiment: Inhibition of MST3 (unknown origin) assessed as residual activity at 1000 nM by KINOMEscan analysis relative to control
[7] = target: T2, Serine/threonine-protein kinase Nek3 (Homo sapiens) (UniProt P51956); experiment: Inhibition of NEK3 (unknown origin) assessed as residual activity at 1000 nM by KINOMEscan analysis relative to control
T2 sequence (whole entry): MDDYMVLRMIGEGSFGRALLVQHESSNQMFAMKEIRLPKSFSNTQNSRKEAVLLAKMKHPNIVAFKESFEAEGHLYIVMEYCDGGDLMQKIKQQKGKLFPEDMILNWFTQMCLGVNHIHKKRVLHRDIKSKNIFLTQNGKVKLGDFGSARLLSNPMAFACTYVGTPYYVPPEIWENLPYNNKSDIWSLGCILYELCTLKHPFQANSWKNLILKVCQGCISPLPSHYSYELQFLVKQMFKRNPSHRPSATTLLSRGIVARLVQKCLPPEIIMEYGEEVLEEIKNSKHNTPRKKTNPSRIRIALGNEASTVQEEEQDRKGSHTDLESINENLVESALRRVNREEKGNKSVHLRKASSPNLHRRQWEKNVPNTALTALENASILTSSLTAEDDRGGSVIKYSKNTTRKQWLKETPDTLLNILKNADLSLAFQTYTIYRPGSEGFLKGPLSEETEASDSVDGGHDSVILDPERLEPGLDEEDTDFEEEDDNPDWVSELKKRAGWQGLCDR

[8] = target: Cyclin-dependent kinase 2 homolog (Plasmodium falciparum (isolate K1 / Thailand)) (UniProt Q07785); experiment: Inhibition of Plasmodium falciparum PK5 assessed as residual activity at 1000 nM by KINOMEscan analysis relative to control
[9] = target: T3, Serine/threonine-protein kinase PknB (Mycobacterium tuberculosis) (UniProt P9WI81); experiment: Inhibition of Mycobacterium tuberculosis PKNB assessed as residual activity at 1000 nM by KINOMEscan analysis relative to control
T3 sequence (whole entry): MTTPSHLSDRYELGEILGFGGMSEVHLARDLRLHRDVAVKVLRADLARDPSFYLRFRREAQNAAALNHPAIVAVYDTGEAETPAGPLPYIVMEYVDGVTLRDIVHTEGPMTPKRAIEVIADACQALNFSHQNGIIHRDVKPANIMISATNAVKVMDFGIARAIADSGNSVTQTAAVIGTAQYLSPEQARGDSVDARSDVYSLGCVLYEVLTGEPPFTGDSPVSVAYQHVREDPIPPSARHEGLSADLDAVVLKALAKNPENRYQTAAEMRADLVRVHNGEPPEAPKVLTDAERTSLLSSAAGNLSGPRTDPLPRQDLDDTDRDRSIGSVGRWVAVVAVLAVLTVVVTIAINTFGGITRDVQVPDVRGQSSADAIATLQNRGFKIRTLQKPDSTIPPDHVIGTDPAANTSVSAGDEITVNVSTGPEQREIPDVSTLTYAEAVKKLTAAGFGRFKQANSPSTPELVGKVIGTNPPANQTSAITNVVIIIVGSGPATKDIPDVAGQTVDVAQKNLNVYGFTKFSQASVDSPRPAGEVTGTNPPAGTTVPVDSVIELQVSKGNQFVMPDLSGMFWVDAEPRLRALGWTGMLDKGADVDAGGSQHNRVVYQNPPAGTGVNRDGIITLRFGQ

[10] = target: Rho-associated protein kinase 2 (Homo sapiens) (UniProt O75116); experiment: Inhibition of ROCK2 (unknown origin) assessed as residual activity at 1000 nM by KINOMEscan analysis relative to control
[11] = target: Non-receptor tyrosine-protein kinase TYK2 (Homo sapiens) (UniProt P29597); experiment: Inhibition of TYK2 JH2 pseudokinase domain (unknown origin) assessed as residual activity at 1000 nM by KINOMEscan analysis relative to control
Non-receptor tyrosine-protein kinase TYK2 (Homo sapiens), sequence (P29597 whole entry, the tested form may be a part): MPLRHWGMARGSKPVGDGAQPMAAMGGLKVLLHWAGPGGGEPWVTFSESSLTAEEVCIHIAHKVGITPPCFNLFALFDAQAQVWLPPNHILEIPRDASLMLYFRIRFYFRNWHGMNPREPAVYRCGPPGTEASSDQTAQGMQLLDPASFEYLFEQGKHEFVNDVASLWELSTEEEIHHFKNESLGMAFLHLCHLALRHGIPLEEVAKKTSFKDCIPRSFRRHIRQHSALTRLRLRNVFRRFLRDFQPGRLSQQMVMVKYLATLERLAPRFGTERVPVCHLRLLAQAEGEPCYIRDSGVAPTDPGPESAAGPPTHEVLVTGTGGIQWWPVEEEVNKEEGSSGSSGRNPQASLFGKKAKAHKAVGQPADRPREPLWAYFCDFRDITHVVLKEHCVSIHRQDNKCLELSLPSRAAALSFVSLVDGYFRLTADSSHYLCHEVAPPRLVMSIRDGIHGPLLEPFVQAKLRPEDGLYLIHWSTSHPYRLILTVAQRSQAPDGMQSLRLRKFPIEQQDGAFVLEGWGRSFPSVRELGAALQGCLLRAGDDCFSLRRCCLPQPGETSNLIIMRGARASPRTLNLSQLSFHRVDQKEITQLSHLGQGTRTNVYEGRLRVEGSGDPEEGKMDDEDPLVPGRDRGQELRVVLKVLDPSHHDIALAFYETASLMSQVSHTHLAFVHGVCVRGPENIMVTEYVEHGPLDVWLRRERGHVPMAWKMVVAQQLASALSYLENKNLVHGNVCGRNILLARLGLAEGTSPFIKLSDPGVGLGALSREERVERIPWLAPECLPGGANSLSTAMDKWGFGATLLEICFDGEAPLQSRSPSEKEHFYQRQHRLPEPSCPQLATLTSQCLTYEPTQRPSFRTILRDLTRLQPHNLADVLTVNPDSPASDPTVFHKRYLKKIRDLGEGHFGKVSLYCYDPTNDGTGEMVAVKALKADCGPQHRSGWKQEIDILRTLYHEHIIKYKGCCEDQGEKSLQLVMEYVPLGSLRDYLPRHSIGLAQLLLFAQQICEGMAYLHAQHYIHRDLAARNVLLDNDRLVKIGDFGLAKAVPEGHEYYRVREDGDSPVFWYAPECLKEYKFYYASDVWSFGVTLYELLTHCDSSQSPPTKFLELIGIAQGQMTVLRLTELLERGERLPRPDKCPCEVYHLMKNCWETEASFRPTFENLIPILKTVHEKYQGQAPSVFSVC

Serine/threonine-protein kinase 24 (Homo sapiens), sequence (Q9Y6E0 whole entry, looked up): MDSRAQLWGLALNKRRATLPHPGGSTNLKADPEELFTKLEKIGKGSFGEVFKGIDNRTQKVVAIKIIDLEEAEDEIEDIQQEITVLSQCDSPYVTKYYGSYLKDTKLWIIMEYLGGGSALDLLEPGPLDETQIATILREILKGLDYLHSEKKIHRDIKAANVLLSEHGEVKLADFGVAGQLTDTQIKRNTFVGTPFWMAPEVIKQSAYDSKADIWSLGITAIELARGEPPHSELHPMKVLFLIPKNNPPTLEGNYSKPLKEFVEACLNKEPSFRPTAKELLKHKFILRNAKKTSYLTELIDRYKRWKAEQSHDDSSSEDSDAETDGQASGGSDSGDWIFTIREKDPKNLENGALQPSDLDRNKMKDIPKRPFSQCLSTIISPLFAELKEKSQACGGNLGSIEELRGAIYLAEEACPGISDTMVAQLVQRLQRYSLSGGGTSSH
Cyclin-dependent kinase 2 homolog (Plasmodium falciparum (isolate K1 / Thailand)), sequence (Q07785 whole entry): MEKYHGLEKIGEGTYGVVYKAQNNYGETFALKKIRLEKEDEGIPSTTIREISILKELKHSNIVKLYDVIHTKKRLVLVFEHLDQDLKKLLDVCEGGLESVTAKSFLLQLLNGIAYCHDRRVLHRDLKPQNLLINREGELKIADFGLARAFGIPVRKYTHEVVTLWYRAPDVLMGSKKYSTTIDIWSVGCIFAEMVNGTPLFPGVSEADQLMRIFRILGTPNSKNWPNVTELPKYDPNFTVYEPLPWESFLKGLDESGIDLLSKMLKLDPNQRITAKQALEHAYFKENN
Tyrosine-protein kinase JAK1 (Homo sapiens), sequence (P23458 whole entry, the tested form may be a part): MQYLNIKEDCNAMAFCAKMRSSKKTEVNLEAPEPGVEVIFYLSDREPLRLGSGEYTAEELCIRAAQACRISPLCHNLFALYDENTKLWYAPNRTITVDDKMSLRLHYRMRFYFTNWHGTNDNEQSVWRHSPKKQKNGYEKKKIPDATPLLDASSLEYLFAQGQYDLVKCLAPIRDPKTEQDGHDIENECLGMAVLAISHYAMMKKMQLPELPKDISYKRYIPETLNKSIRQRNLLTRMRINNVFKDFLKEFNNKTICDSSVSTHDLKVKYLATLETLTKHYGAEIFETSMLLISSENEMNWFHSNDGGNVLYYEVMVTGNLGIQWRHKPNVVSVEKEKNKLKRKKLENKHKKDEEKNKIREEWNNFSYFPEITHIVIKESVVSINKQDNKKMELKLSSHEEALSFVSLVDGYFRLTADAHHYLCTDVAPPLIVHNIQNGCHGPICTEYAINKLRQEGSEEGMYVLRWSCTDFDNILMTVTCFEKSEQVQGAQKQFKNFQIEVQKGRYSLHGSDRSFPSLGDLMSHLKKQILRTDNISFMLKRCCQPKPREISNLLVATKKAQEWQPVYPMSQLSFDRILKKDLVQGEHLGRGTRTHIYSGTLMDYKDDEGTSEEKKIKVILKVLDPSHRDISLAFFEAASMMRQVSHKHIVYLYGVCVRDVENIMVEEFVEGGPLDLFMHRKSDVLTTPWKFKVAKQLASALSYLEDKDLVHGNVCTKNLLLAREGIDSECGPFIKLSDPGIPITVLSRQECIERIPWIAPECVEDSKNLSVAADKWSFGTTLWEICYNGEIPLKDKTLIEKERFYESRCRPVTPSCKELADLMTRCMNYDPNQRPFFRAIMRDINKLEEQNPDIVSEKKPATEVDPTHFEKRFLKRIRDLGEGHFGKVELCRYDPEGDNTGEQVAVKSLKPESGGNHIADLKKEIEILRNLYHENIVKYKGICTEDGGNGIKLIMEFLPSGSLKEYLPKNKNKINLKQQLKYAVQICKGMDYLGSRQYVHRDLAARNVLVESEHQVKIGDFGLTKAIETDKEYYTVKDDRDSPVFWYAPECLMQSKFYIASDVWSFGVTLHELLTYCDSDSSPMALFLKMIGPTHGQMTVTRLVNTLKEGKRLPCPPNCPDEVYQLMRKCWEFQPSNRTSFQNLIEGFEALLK
Mitogen-activated protein kinase 1 (Homo sapiens), sequence (P28482 whole entry): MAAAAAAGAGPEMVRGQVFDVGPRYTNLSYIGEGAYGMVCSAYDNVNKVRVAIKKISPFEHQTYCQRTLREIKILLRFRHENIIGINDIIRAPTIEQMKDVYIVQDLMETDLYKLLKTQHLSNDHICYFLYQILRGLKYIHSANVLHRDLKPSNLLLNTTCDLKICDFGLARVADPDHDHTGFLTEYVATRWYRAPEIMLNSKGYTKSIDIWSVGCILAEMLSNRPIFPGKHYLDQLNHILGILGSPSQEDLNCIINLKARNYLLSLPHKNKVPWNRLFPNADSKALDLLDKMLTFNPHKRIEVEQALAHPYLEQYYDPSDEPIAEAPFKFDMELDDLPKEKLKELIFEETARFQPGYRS
Fibroblast growth factor receptor 4 (Homo sapiens), sequence (P22455 22-802 limits assumed): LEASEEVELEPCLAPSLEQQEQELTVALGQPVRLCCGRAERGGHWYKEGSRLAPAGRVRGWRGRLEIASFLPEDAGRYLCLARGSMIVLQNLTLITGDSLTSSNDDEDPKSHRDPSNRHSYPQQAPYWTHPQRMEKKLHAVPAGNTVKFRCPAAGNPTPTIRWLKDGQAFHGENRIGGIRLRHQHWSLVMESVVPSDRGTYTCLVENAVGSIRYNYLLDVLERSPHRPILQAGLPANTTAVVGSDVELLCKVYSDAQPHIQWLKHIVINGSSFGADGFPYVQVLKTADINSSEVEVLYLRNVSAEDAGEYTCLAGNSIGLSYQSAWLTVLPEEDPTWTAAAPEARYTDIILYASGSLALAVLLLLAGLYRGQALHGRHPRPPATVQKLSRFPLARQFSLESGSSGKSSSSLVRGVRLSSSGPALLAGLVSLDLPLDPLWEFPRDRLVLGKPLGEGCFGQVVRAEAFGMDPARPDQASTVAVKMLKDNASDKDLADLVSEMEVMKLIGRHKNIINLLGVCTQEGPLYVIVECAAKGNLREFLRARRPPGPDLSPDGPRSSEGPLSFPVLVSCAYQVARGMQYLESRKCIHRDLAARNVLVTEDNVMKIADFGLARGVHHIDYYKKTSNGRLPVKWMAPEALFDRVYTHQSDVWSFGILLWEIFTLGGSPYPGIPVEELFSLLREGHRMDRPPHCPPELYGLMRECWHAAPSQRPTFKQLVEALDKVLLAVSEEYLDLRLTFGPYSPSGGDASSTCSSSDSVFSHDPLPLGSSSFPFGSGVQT

Structure (SMILES)	Activity [1] [%]	Activity [2] [%]	Activity [3] [%]	Activity [4] [%]	Activity [5] [%]	Activity [6] [%]	Activity [7] [%]	Activity [8] [%]	Activity [9] [%]	Activity [10] [%]	Activity [11] [%]
COc1cc2nc(C)nc(N[C@H](C)c3cccc(-c4cn[nH]c4)c3)c2cc1OC	91	77	90	97	78	61	42	98	89	72	80
COc1cc2ncnc(N[C@H](C)c3cccc4ccccc34)c2cc1OC	93	96	96	98	100	100	93	100	94	91	100
